Experimental findings from patent publication US20240018207A1, “INTERFERON TAU FC-FUSION PROTEINS AND METHODS FOR TREATING CORONAVIRUS INFECTIONS” (Southlake Pharmaceuticals, Inc., priority 2020, published 2024) are described below.

One data set is described as follows: in vitro. The settings on record: human.
Data set [1] has as its system SARS CoV-2 (USA_WA1/2020). Briefly: microbe, parasite or virus in culture. It is filed as cell-based. The settings on record: Severe acute respiratory syndrome coronavirus 2, Vero C1008; SARS-CoV-2 CPE assay, reference compounds.
The subject of a further data set is hCoV-229E. Nature of the data set: hCoV-229E CPE assay in MRC5 cells. The class given is cell-based. As to the method: The method of this CPE assay is as follows: In 96-well plates, MRC5 cells were seeded at an appropriate density and cultured at 37° C. and 5% CO2 overnight. […] Then medium in each well was replenished with medium containing serially diluted samples and virus. […] Cytotoxicity of the compounds was assessed under the same conditions, but without virus infection, in parallel. Cell viability was measured by CellTiter Glo following the manufacturer's manual. IC50 and CC50 values were calculated with GraphPad Prism software.

A word on the IC50: it is the midpoint of a concentration-inhibition curve. Consider `CCC(CC)COC(=O)[C@H](C)N[P@](=O)(OC[C@H]1O[C@@](C#N)(c2ccc3c(N)ncnn23)[C@H](O)[C@@H]1O)Oc1ccccc1` [Remdesivir], for which the CC50 in “in vitro” turned out to be 26.7 µM. In addition, the half-maximal inhibitory concentration (IC50) in data set [1] was 3.9 µM; in the data set on hCoV-229E (Human coronavirus 229E, MRC5, 72 h, read-out: Antiviral IC50), 0.0177 µM. Also, in the data set on hCoV-229E (HCoV-229E CPE assay), the “Selectivity Index (CC50/IC50) (Based upon nM)” value was 1508.76.
